In US12662530B2, “Anti-ADM-antibodies binding to the free N-terminus for accelerated transition of ADM-Gly to bio-ADM in patients with ADM-Gly/ bio-ADM ratio above a threshold and combination with vitamin C” (SphingoTec GmbH, priority 2020, dated 2026):

Tests used:
native PAM = assay: ADM maturation activity (AMA) of native PAM in Li-Heparin plasma with antibody and varying L-ascorbate; format: biochemical, human
Experimental: A serial antibody-dilution with concentrations of 0, 5, 10, 50, 100, 500 and 3000 μg/mL per well, respectively (in 20 μl) were pipetted into 96-well micro-titer plates. Then 160 μl PAM reaction buffer (100 mM Tris-HCl, 6.25 μM CuSO4, 62.5 μM amastatin, 250 μM leupeptin, 36 ng/mL ADM-Gly) with varying L-ascorbate concentrations was added to the wells and incubated for 15 min. Afterwards the reaction was started by addition of 20 μl of Li-Heparin plasma, containing native PAM Immediately after addition of plasma, 100 μl from each well were removed and inactivated by addition of EDTA (20 mM final concentration) to generate a t=0 minutes reaction point. Inactivated and non-inactivated samples were incubated for 40 minutes at 37° C. and the reaction in non-inactivated samples was stopped as described above. For quantification of produced ADM-NH2 the Sphingotest® bio-ADM Kit (Weber et al. 2017) was utilized according to manufacturer's manual. The ADM maturation activity (AMA) was calculated according to equation 1 (DF=dilution factor of sample matrix).

septic patients = conditions: intravenous; placebo group 46%; cited from earlier work

SMILES: O=C1O[C@H]([C@@H](O)CO)C(O)=C1O [ascorbate, L-ascorbic acid, reference compound]
- effect on ADM maturation activities (native PAM; ascorbate in the range of 0.4-2 mM, FIG. 15): led to increasing ADM maturation activities
- activity optimum of the amidating reaction (ascorbate concentration) (native PAM; with and without HAM8101): 0.8 to 2 mM
- mortality at day 28 (septic patients): ~30%
